Entries after “also recorded” stand apart in the source; their conditions may differ. Non-standard residues stand in square brackets, D forms with d. Residues, ends and D or L forms follow the SMILES beside them. ξ: configuration not given here. *: point of attachment. Cbz = O=C(OCc1ccccc1)*; Boc = CC(C)(C)OC(=O)*; ξNle = CCCCC(N)C(=O)O
Assays:
PS1 precursor [1] = target: T1, PS1 precursor (Homo sapiens, UniProt P49768); assay: Screening of γ-secretase inhibitors for PS1 precursor (holo) enhancement, western blot; assay type: cell-based; design: key to PS1 Precursor Enhancement: −: no effect; +: some effect; ++: moderate effect; +++: strong effect; conditions: ~50 uM inhibitor, 24 hrs; for PS1 Precursor Enhancement: SH-SY5Y neuroblastoma cells; for PS1 precursor (45 kDa band) level / stabilization: SY5Y neuroblastomas
T1 construct: The unprocessed or precursor form of PS1 is evidenced by a band at 45 kDa; endogenous in cells; host or cells: SH-SY5Y neuroblastoma cells
Description: Eighteen different γ-secretase inhibitors (purchased from Calbiochem) were tested for their ability to stabilize the PS1 precursor. SH-SY5Y neuroblastoma cells (1e6) incubated in 6-well plates were dosed with ˜50 uM γ-secretase inhibitor (10% FBS, DMEM) for 24 hrs. Cells were lysed in 2% CHAPS (TBS+protease inhibitors), cell debris pelleted at 18,000 g. Total protein in cell lysates were determined by BCA and 25 ug of protein/lane loaded onto 4-12% BisTris NuPage gels (Invitrogen) that were electrophoresed at 150V for 1 hr. Gels were transferred to PVDF (25V, 1 hr) and probed with anti-N-term PS1 (1:1000, Abcam cat. #ab10281). Western blots were developed using chemiluminescence and imaged using an Alpha Innotech FluorChem Q imaging system. Γ-secretase inhibitors tested: PME, XX, XVII, X, IX, IV, II, I-40, VII, V, III, II-40, I, XIII, XVI, XIX, XXI, CW.
The mature form of PS1 (where PS1 is processed to form a heterodimer) is evidenced by a prominent band at 27 kDa (developed using an antibody specific for the N-terminus of PS1) and is present in all samples. […] The increase in PS1 precursor protein level is interpreted as stabilization of the PS1 precursor and the stabilization appears to be mechanistically distinct from the inhibition of γ-secretase activity since there is no correlation between γ-secretase inhibitory potency (IC50 for Abeta production) and levels of stabilized PS1 precursor (see Table 1).

γ-secretase = γ-secretase (Homo sapiens, UniProt P49768); conditions: known IC50s of the inhibitors; read-out: IC50 (Abeta production); cited from earlier work
γ-secretase complex = target: T2, γ-secretase complex (Homo sapiens, UniProt P49768); assay: Native gel of intact γ-secretase complex from treated fibroblasts; assay type: cell-based; conditions: wildtype fibroblasts CRL2076, 0-100 uM for 24 hrs, 6 hr wash out
T2 construct: The mature form of presenlin is a heterodimer consisting of a ˜30 kDa NH2-terminal fragment (NTF) and a ˜20 kDa C-terminal fragment; host or cells: wild-type fibroblasts CRL2076
Description: Wildtype fibroblasts (CRL2076) in a 6-well plate were treated with different doses of γ-secretase inhibitor IV (0, 3.1, 6.25, 12.5, 25 and 100 uM) for 24 hrs, followed by a 6 hr wash out period. Fibroblasts were harvested by gentle scraping in TBS, collected by centrifugation (5000 g, 5 min) and lysed in 1% digitonin (50 mM NaCl, 50 mM Hepes, pH 7.3) overnight at 4° C. Nonsolubilized cell debris was removed by centrifugation (15,000 g, 10 min.). Total protein was determined by BCA and equivalent proteins loads of 40 ug/lane were separated on a 4-16% native BisTris polyacrylamide gel using Blue-Native cathode and anode buffer system (Invitrogen). The native gel was transferred to PVDF (25V, 1 hr in NuPage Transfer buffer), blocked with Blotto (Pierce) and probed with anti-N-term PS1 (1:1000, Abcam cat. #ab10281) followed by development using an anti-rabbit alkaline phosphatase conjugate, chemiluminescence detection and imaged using an Alpha Innotech FluorChem Q imaging system.

mature PS1 = target: T3, mature PS1 (Homo sapiens, UniProt P49768); assay: Mature PS1 dose response to four day treatment, western blot; assay type: cell-based; conditions: SY5Y neuroblastomas, four days of treatment, different concentrations
T3 construct: The mature form of PS1 (where PS1 is processed to form a heterodimer) is evidenced by a prominent band at 27 kDa; The mature form of presenlin is a heterodimer consisting of a ˜30 kDa NH2-terminal fragment (NTF) and a ˜20 kDa C-terminal fragment; endogenous in cells; host or cells: SH-SY5Y neuroblastoma cells
Description: SY5Y neuroblastomas grown in 6-well plates were dosed with different concentrations of γ-secretase inhibitors IX, XXI, and XX for four days, after which the cells were harvested by centrifugation (5000 g, 5 min.), lysed in RIPA buffer (TBS, 1% TX100, 0.5% taurodeoxycholate, 0.1% SDS plus protease inhibitors) and cleared of unsolubilized cell debris by centrifugation (15,000 g, 10 min., 4 C). Total protein was determined by BCA and equivalent protein loads of 50 ug/lane were separated on a 4-12% BisTris NuPage polyacrylamide gel (Invitrogen) then transferred to PVDF (25V, 1 hr in NuPage Transfer buffer). Western blots were probed with anti-N-term PS1 (1:1000, Abcam cat. #ab10281) followed by development using an anti-rabbit alkaline phosphatase conjugate, chemiluminescence detection and imaged using an Alpha Innotech FluorChem Q imaging system. After PS1 bands were quantified using the FluorChem Q band analysis software, blots were stripped and re-probed for actin (rabbit anti-actin, Pierce Chemicals).

PS1 precursor [2] = assay: Time course of PS1 precursor enhancement, western blot; assay type: cell-based, human; conditions: 10 uM, lymphoblast cell line AG07622
Description: Lymphoblast cell line AG07622 was dosed in 6-well plates with 10 uM of γ-secretase inhibitor X (in 10% FBS, DMEM) for 0 hrs, 2 hrs, 4 hrs, 6 hrs and 24 hrs. Control samples containing 1% DMSO were ran in parallel to the drug treated lymphoblasts. After the specified dosing time, cells were harvested by centrifugation (5000 g, 5 min.), lysed in 2% CHAPS/TBS (with protease inhibitors) and cleared of unsolubilized cell debris by centrifugation (15,000 g, 10 min., 4 C). Total protein was determined by BCA and equivalent proteins loads of 40 ug/lane were separated on a 4-12% BisTris NuPage polyacrylamide gel (Invitrogen) then transferred to PVDF (25V, 1 hr in NuPage Transfer buffer). Western blots were probed with anti-N-term. PS1 (1:1000, Abcam cat. #ab 10281) followed by development using an anti-rabbit alkaline phosphatase conjugate, chemiluminescence detection and imaged using an Alpha Innotech FluorChem Q imaging system.

Molecule	PS1 Precursor Enhancement (PS1 precursor [1])	PS1 precursor (45 kDa band) level / stabilization (PS1 precursor [1])	IC50 (γ-secretase) [nM]	band intensity / level of the γ-secretase complex (γ-secretase complex)	mature PS1 protein levels (mature PS1)	time at which increase in PS1 precursor is first evident (PS1 precursor [2]) [h]	time at which maximum PS1 precursor level is reached (PS1 precursor [2]) [h]
O=C(O)c1cc(Oc2ccc([N+](=O)[O-])cc2)cc(Oc2ccc([N+](=O)[O-])cc2)c1 [CW]	−						
CCCCC(C=O)NC(=O)[C@H](CC(C)C)NC(=O)[C@@H](CC(C)C)NC(=O)OCc1ccccc1 (stereo partly drawn) [I, benzyl ((2R)-4-methyl-1-(((2S)-4-methyl-1-oxo-1-((1-oxohexan-2-yl)amino)pentan-2-yl)amino)-1-oxopentan-2-yl)carbamate] (Cbz-[dL]-Leu-[ξNle]-aldehyde)	+	significantly increased					
CCC(C)C(NC(=O)C=Cc1cc(OC)cc(OC)c1)C(=O)NC(C=O)CC(C)C (stereo not drawn) [I-40, trans-3,5-DMC-Ile-Leu-CHO]	−	significantly increased	15000				
CC(C)C(C=O)NC(=O)C(NC(=O)CNC(=O)OC(C)(C)C)C(C)C (stereo not drawn) [II-40] (Boc-Gly-Val-Val-aldehyde; configuration not given here)	−						
CC(C)C[C@@H](C=O)NC(=O)[C@@H](CC(C)C)NC(=O)OCc1ccccc1 [III]	−		35000				
CC(C)[C@H](NC(=O)c1ccc2ccccc2c1)C(=O)N[C@H](C=O)Cc1ccccc1 [IV, N-((S)-3-methyl-1-oxo-1-(((S)-1-oxo-3-phenylpropan-2-yl)amino)butan-2-yl)-2-naphthamide]	++	significantly increased	2600	increased levels of the γ-secretase complex; also recorded: increases as a function of increasing concentration			
C[C@H](NC(=O)Cc1cc(F)cc(F)c1)C(=O)N[C@H](C(=O)OC(C)(C)C)c1ccccc1 [IX, (S)-tert-butyl 2-((S)-2-(2-(3,5-difluorophenyl)acetamido)propanamido)-2-phenylacetate]	−	does not stabilize the PS1 precursor			dose dependent increase		
CC(C)CC(C=O)NC(=O)C(CC(C)C)NC(=O)OC1CC(C)CCC1C(C)C (stereo not drawn) [VII]	−		2300				
CC(C)CC(NC(=O)OCc1ccccc1)C(=O)NC(C=O)Cc1ccccc1 (stereo not drawn) [V] (Cbz-Leu-Phe-aldehyde; configuration not given here)	−		5000				
CC(C)C[C@H](NC(=O)[C@H](Cc1ccccc1)C[C@@H](O)[C@H](Cc1ccccc1)NC(=O)OC(C)(C)C)C(=O)N[C@@H](Cc1ccccc1)C(N)=O [X, tert-butyl ((2S,3R,5R)-6-(((S)-1-(((S)-1-amino-1-oxo-3-phenylpropan-2-yl)amino)-4-methyl-1-oxopentan-2-yl)amino)-5-benzyl-3-hydroxy-6-oxo-1-phenylhexan-2-yl)carbamate]	+++	significantly increased	17			2	24
CCC(C)C(NC(=O)[C@H](Cc1ccc(O)cc1)NC(=O)OCc1ccccc1)C(=O)N[C@H](C=O)CC(C)C (stereo partly drawn) [XIII, benzyl ((2S)-3-(4-hydroxyphenyl)-1-((3-methyl-1-(((S)-4-methyl-1-oxopentan-2-yl)amino)-1-oxopentan-2-yl)amino)-1-oxopropan-2-yl)carbamate]	+	significantly increased	8				
COC(=O)[C@@H](NC(=O)[C@H](CC(C)C)NC(=O)N(Cc1ccccc1)C[C@@H](O)[C@H](Cc1ccccc1)NC(=O)OC(C)(C)C)C(C)C [XVII, (6S,7R,12S,15S)-methyl 6,9-dibenzyl-7-hydroxy-12-isobutyl-15-isopropyl-2,2-dimethyl-4,10,13-trioxo-3-oxa-5,9,11,14-tetraazahexadecan-16-oate]	−		300				
COC(=O)[C@@H](NC(=O)[C@H](C)NC(=O)Cc1cc(F)cc(F)c1)c1ccccc1 [XVI]	−		10				
C[C@H](NC(=O)Cc1cc(F)cc(F)c1)C(=O)N[C@@H]1C(=O)N(C)c2ccccc2-c2ccccc21 [XX, (S)-2-(2-(3,5-difluoro-phenyl)acetamido)-N-((S)-5-methyl-6-oxo-6,7-dihydro-5H-dibenzo[b,d]azepin-7-yl)propanamide]	+++	significantly increased; also recorded: do stabilize the PS1 precursor	1.7		dose dependent increase		
(2R,3R)- 3-(3,4-difluorophenyl)- 2-(4-fluorophenyl)-4- hydroxy-N-((S)-2-oxo-5- phenyl-2,3-dihydro-1H- benzo[e][1,4]diazepin-3- yl)butanamide [XIX]	+	significantly increased	0.06				
(11S)-19-tert- butyl 1-methyl 2,14-di- sec-butyl-9,9-difluoro- 5,17-diisopropyl-11- methyl-4,8,10,15,18- pentaoxo-3,6,7,12,13,16- hexaazanon	+	significantly increased	13000				

Reference: US20130102538A1, “METHOD OF TREATING ALZHEIMER'S DISEASE USING PHARMACOLOGICAL CHAPERONES TO INCREASE PRESENILIN FUNCTION AND GAMMA-SECRETASE ACTIVITY” (AMICUS THERAPEUTICS, INC., priority 2010, published 2013)
